The conditions of data set [1]: in words; cited from earlier work.
In data set [2] the test system is phencyclidine binding sites in the central nervous system. The conditions noted are these: in words; cited from earlier work.
Data set [3] can be described thus: protection against maximal electroshock induced seizures (corneal electroshock, tonic-extensor component). The format is in vivo, male CF-1 type mice. The note with it: Mus musculus, ip, 0.25 h; mice, intraperitoneal, saline carrier, 15 min before electroshock (30 mA, 50 Hz, 0.1 s). Here is the method: (§1) Compound 1 was administered intraperotoneally to male CF-1 type mice (20-25 g) with a saline solution carrier. The dose effect behavior was determined by the administration of six different doses of each compound, treating eight mice at each dose. After a period of fifteen minutes, the mice were subjected to corneal application of electroshock (30 mA at 50 Hz for 0.1 s). The ED50 and the 95% confidence intervals of drug which eliminated the tonic-extensor component of the convulsion in 50% of the animals was calculated by the method of Litchfield and Wilcoxon (J. Pharmacol. Exp. Ther. 1949, 96, 99). Drug induced motor toxicity was examined using the inverted screen test which measures the ability of mice to hold onto a screen which has been turned vertical. Control animals will be able to hold on.
Background: Protection in the maximal electroshock model is a classic sign of anticonvulsant action.

Data set [4] can be described thus: drug induced motor toxicity, inverted screen test. The conditions noted are these: mouse, in vivo, ip, mice. Here is the method:
as §1

For data set [5] the following is noted: compared to 17% who received a placebo; cited from earlier work.
The conditions of data set [6]: in words; cited from earlier work. This is another data set of the same source.

The term ED50 denotes the midpoint of the dose-response relation. Low readings indicate greater potency, high ones weaker potency. What is called TD50 is the dose at which the toxic effect under study appears in half of the subjects.

Regarding `CC12NC(Cc3ccccc31)c1ccccc12` (single isomer, unassigned) [MK-801], in data set [1], the sedative side effects entry is on record as “essentially free of the usual sedative side effects”. For the same compound, in data set [2], the “affinity for phencyclidine binding sites” value is on record as “high affinity”.
Regarding `NC(=O)C12NC(Cc3ccccc31)c1ccccc12` (centres unmarked) [Compound 1, 5-Aminocarbonyl-10,11-dihydro-5H-dibenzo[a,d]cyclohepten-5,10-imine], in data set [3], the ED50 was determined as 8.9 mg/kg. The same compound returned a TD50 in data set [4] (intraperitoneal, inverted screen test) of 50 to 55 mg/kg. In addition, the selectivity ratio in data set [4] (motor toxicity TD50 versus maximal electroshock ED50, read-out: therapeutic index (TI)) was 5.6 to 6.2.
As for `NC(=O)N1c2ccccc2C=Cc2ccccc21` [Carbamazepine, 5-carbamyl-5H-dibenzo[b,f]azepine], the “addicts taking the medication able to abstain from cocaine for a prescribed period” value in data set [5] is listed as 59%. Moreover, in data set [6], the “acute and motor toxicity” value is “low acute and motor toxicity”; the anticonvulsant activity entry was “good activity”; the bioavailability entry is “low bioavailability”; the bone marrow suppression result is listed as “implicated in bone marrow suppression”. For the same compound, the toxic overdose reported result in data set [6] is “only one case of toxic overdose has been reported”.

The values above are taken from US5196415A, “5-aminocarbonyl-5H-dibenzo[a.d]cyclohepten-5,10-imines for treatment of epilepsy and cocaine addiction” (The United States of America as represented by the …, priority 1992, dated 1993).
